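Each compound was tested at five concentrations against cells in 96-well plates for 48 hours. At the TGI there is no net growth.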 Bounds are passed on as bounds.

Some test systems named below: 786-0 renal; ACHN renal; BT-549 breast; HCT-116 colon; HOP-62 NSCLC; KM12 colon; M14 melanoma; MALME-3M melanoma; NCI-H23 lung; OVCAR-5 ovarian; RXF 393 renal; SF-295 CNS; SK-MEL-5 melanoma; SK-OV-3 ovarian; SN12C renal; SNB-19 CNS; SNB-75 CNS; UACC-62 melanoma; UO-31 renal.
What all share (assay): NCI-60 cell line screen, 48 h

For `O=[N+]([O-])c1cccc2nc3ccccc3c(NCCCCNc3c4ccccc4nc4cccc([N+](=O)[O-])c34)c12`, the TGI is 0.0943 µM in the assay with 786-0 renal; 0.0913 µM with ACHN renal; 1.79 µM with BT-549 breast; 0.0347 µM with HCT-116 colon; 0.372 µM with HOP-62 NSCLC; 0.204 µM with KM12 colon. The TGI with M14 melanoma was determined as 0.199 µM; in the assay with MALME-3M melanoma it was 0.255 µM; in the assay with NCI-H23 lung, 0.159 µM; in the assay with OVCAR-5 ovarian, 1.64 µM; in the assay with RXF 393 renal it was 0.117 µM; with SF-295 CNS, 1.02 µM. Moreover, the TGI with SK-MEL-5 melanoma is 0.165 µM; in the assay on SK-OV-3 ovarian, 1.69 µM; in the assay on SN12C renal, 0.38 µM; in the assay on SNB-19 CNS, 0.152 µM; in the assay with SNB-75 CNS, 1.83 µM; in the assay on UACC-62 melanoma, 0.302 µM. In the assay with UO-31 renal, this molecule yielded a TGI of 0.398 µM.
Turning to `S=C1NCCN1`, the TGI in the assay with 786-0 renal, in the assay on ACHN renal, in the assay with HCT-116 colon, in the assay with HOP-62 NSCLC, in the assay with KM12 colon and in the assay with M14 melanoma was over 100 µM throughout. Also, the TGI in the assay on MALME-3M melanoma, with NCI-H23 lung, in the assay on OVCAR-5 ovarian, in the assay on SF-295 CNS, in the assay on SK-MEL-5 melanoma and in the assay on SK-OV-3 ovarian was over 100 µM each time. Moreover, the TGI with SN12C renal, in the assay with SNB-19 CNS, with SNB-75 CNS, with UACC-62 melanoma and in the assay with UO-31 renal was over 100 µM in each case.
With `Cc1sc(Nc2ccc(Nc3nc(-c4ccccc4)c(C)s3)cc2)nc1-c1ccccc1`, the TGI in the assay on 786-0 renal, in the assay on ACHN renal, in the assay with BT-549 breast, in the assay on HCT-116 colon, in the assay with HOP-62 NSCLC and in the assay on KM12 colon was over 100 µM in each case. Further, the TGI was over 100 µM in the assay with M14 melanoma; over 100 µM in the assay on MALME-3M melanoma; over 100 µM with NCI-H23 lung; over 100 µM with OVCAR-5 ovarian; 81.5 µM with RXF 393 renal; over 100 µM in the assay on SF-295 CNS. For the same molecule, the TGI was 66.3 µM with SK-MEL-5 melanoma; over 100 µM in the assay on SK-OV-3 ovarian; over 100 µM in the assay with SN12C renal; over 100 µM in the assay with SNB-19 CNS; over 100 µM in the assay on SNB-75 CNS; over 100 µM in the assay with UACC-62 melanoma. This molecule displayed a TGI in the assay on UO-31 renal of over 100 µM.
Consider `CC(=O)c1cccc(Nc2nc3ccccc3c3occc23)c1`, for which the TGI with 786-0 renal is 40 µM; in the assay with ACHN renal, 39.9 µM; with BT-549 breast it was 39.6 µM; with HCT-116 colon it was 50 µM; with HOP-62 NSCLC it was 34.6 µM; in the assay with KM12 colon, over 100 µM. The TGI in the assay on M14 melanoma was over 100 µM; in the assay on MALME-3M melanoma, 53 µM; in the assay with NCI-H23 lung, 50.8 µM; in the assay on OVCAR-5 ovarian, over 100 µM; in the assay with RXF 393 renal, 41.7 µM; with SF-295 CNS, 48.4 µM. Moreover, the TGI in the assay on SK-MEL-5 melanoma came out at 48.6 µM; in the assay with SK-OV-3 ovarian, 40.8 µM; with SN12C renal, 45.6 µM; in the assay on SNB-19 CNS, 60.9 µM; with SNB-75 CNS, 45.2 µM.
`O=C1NC(N/N=C/c2ccccc2)=N/C1=C\c1ccco1`: the TGI was 55.6 µM in the assay on 786-0 renal; 55.4 µM in the assay on ACHN renal; 70.6 µM with BT-549 breast; over 100 µM with HCT-116 colon; 50.6 µM with HOP-62 NSCLC; over 100 µM in the assay with KM12 colon. Further, the TGI in the assay with M14 melanoma is over 100 µM; in the assay on MALME-3M melanoma, over 100 µM; with NCI-H23 lung, 95.6 µM; with OVCAR-5 ovarian it was over 100 µM; in the assay on RXF 393 renal it was 80.4 µM; in the assay on SF-295 CNS it was over 100 µM. For the same molecule, the TGI with SK-MEL-5 melanoma, with SK-OV-3 ovarian, in the assay on SN12C renal, in the assay with SNB-19 CNS, in the assay with SNB-75 CNS and in the assay on UACC-62 melanoma was over 100 µM in each case. This molecule also gave a TGI in the assay with UO-31 renal of 86 µM.
As for `CC(=O)Nc1oc(C)c(C)c1S(=O)(=O)c1ccc(Cl)cc1`, the TGI in the assay on 786-0 renal was over 100 µM; in the assay on ACHN renal, over 100 µM; in the assay on BT-549 breast, 89.3 µM; with HCT-116 colon, over 100 µM; in the assay with KM12 colon, over 100 µM; in the assay with M14 melanoma, over 100 µM. For the same molecule, the TGI in the assay on MALME-3M melanoma is over 100 µM; in the assay on NCI-H23 lung, over 100 µM; with OVCAR-5 ovarian, over 100 µM; in the assay on RXF 393 renal it was over 100 µM; with SF-295 CNS, over 100 µM; with SK-MEL-5 melanoma it was 76.6 µM. The TGI in the assay with SK-OV-3 ovarian, in the assay on SNB-19 CNS, in the assay with SNB-75 CNS, in the assay with UACC-62 melanoma and in the assay with UO-31 renal was over 100 µM throughout.
`COc1cc2c(c(OC)c1O)-c1ccc(SC)c(=O)cc1C(NC(C)=O)CC2` (configuration not stated): the TGI in the assay on 786-0 renal was over 100 µM; in the assay with ACHN renal, over 100 µM; in the assay on HCT-116 colon, 0.252 µM; in the assay with HOP-62 NSCLC, over 100 µM; in the assay with M14 melanoma it was over 100 µM; with MALME-3M melanoma it was over 100 µM. Moreover, the TGI is 3.79 µM in the assay with NCI-H23 lung; over 100 µM in the assay with OVCAR-5 ovarian; over 100 µM with RXF 393 renal; 0.0868 µM in the assay with SF-295 CNS; 0.0361 µM in the assay on SK-MEL-5 melanoma; over 100 µM with SK-OV-3 ovarian. Also, the TGI with SN12C renal, in the assay with SNB-19 CNS, in the assay on UACC-62 melanoma and in the assay on UO-31 renal was over 100 µM in each case.
For `Nc1ccccc1-c1noc(=O)[nH]1`, the TGI with 786-0 renal, in the assay with ACHN renal, in the assay on BT-549 breast, in the assay on HCT-116 colon, in the assay on HOP-62 NSCLC and in the assay on KM12 colon was over 100 µM throughout. The TGI with M14 melanoma, in the assay on NCI-H23 lung, with OVCAR-5 ovarian, in the assay with RXF 393 renal, in the assay on SF-295 CNS and in the assay with SK-MEL-5 melanoma was over 100 µM in each case. Also, the TGI with SK-OV-3 ovarian, with SN12C renal, in the assay on SNB-19 CNS, with SNB-75 CNS, in the assay with UACC-62 melanoma and in the assay with UO-31 renal was over 100 µM throughout.

The values are drawn from PubChem BioAssay (NCI).
